One data set deals with bladder cancer cells. Description: Migration and invasion assays. Format: cell-based, human. Here is the method:
Cell migration experiments were carried out using 8-μm pore size migration chambers (Falcon, Becton Dickinson) precoated at 4° C. overnight with fibronectin (Becton Dickinson) at a concentration of 5 μg per square centimeter in PBS. The following day, the fibronectin solution was aspirated and the migration chambers were rinsed one time with water and allowed to air dry prior to the migration experiment. Cell invasion experiments were carried out using re-hydrated 8-μm pore size invasion chambers precoated with Matrigel (Becton Dickinson). Cells at 80% confluence were trypsinized, harvested, and counted. For each condition, cells were seeded at 25,000 cells/well (T24) or 100,000 cells/well (SV-HUC) in 500 μl serum free media, then added to each migration and invasion chamber. Medium (750 μl) containing 10% serum was used as a chemoattractant in the lower chamber. Both upper and lower chambers contained the indicated compound. Cells were allowed to migrate for eight hours or invade for 24 hours at 37° C. in the presence of 5% CO2. […] Migrating and invading cells in 10 high power fields in each chamber were counted and the mean cell number was calculated. Each experiment was conducted in triplicate and repeated three times.

Data set [1] concerns TCC-SUP human bladder cancer xenografts. In words: Xenograft mouse model, subcutaneous TCC-SUP in nu/nu mice. Format: in vivo. Here is the method:
FIGS. 9A-B. TP receptor antagonist inhibits bladder cancer tumor growth. (FIG. 9A) Anti-tumor effects of GR32191 and cisplatin treatment in immunocompromised mice. Subcutaneous TCC-SUP human bladder cancer xenografts in nude mice were treated with vehicle control (12 mice), GR32191 (15 mice), 5 mg/kg cisplatin (cisplatin high) (12 mice), 5 mg/kg cisplatin in combination with GR32191 (13 mice), or 0.5 mg/kg (single low dose cisplatin) alone (10 mice) or 0.5 mg/kg cisplatin in combination with GR32191 (10 mice). Tumor size was measured over time. Kaplan-Meier curves showing time to tumor onset across the treatment groups. (FIG. 9B) Pathological evaluation of tumors derived from mice treated with GR32191 (n=15) and vehicle control mice (n=12). Representative images of CD31 staining, TUNEL, staining, PCNA staining, and H&E staining are shown. Graphs on the left indicate the quantitative analysis for each of these markers. Five fields from 5 independent tumors (total 25) were counted and scored blindly. Statistically significant (p<0.05) differences compared to vehicle alone were indicated (++p<0.001 or +p<0.05).
Antigen retrieval was done by heating in a microwave oven for 5 min on high power in 10 mM citrate, pH 6.0. Sections were washed and nonspecific binding was blocked with 10% horse serum in Tris-buffered saline (TBS) (50 mM Tris-HCl, 0.9% NaCl, pH 8.0) for 20 min, then incubated overnight at 4° C. with the TP isoform-specific primary antibodies at a 1:200 dilution in the blocking solution, anti-CD31 antibody (DAKO) was used at dilution 1:25. After overnight incubation at 4° C. followed by three 10-min washes in TBS. Immpress™ horse anti-rabbit secondary was incubated (Vector Laboratories, Burlingame, Calif.) for 45 min at room temperature. Slides were counterstained with hematoxylin. PCNA staining was done utilizing mouse monoclonal antibody against human PCNA (SantaCruz) at dilution 1:200. For TUNEL staining, sections were stained using the Situ Cell Death Detection Kit (Roche Applied Science).
TCC-SUP human bladder cancer cells or SV-HUC cells stably transfected with pcDNA3, TP-α or TP-β were used in a subcutaneous model in immunocompromised (nu/nu) mice. TCC-SUP cells (5×10^6 in PBS) or SV-HUC cells (5×10^7 in Matrigel™, BD Bioscience Inc.) were injected s.c. into the right and left flanks of anesthetized mice. Tumor growth was monitored in these mice twice a week. For mice injected with TCC-SUP, GR32191 or vehicle control was administered daily (20 mg/kg) by gavage with treatment initiated 24 hrs after initial injection. Two cycles of cisplatin (single high dose (5 mg/kg) or single low dose (0.5 mg/kg)) were administrated at day 4 and day 11 post tumor cell injection.
Kaplan-Meier survival curves were constructed for overall mouse survival for two groups with and without over-expressed TP-β receptor protein. ANOVA was used to analyze the in vitro drug treatments and drug combination data. Data are presented as the mean±SD. For all statistical tests, a two-sided p-value<0.05 was used to reject the null hypothesis. Kaplan-Meier curves were used to describe time to tumor onset in each mouse group, and a Cox proportional hazards model was used to estimate and test for differences across treatment groups. Hazard ratios and their 95% confidence intervals were to describe rates of tumor onset and p-values used to compare tumor onset across groups. The proportional hazards assumption was tested using Schoenfeld residuals. Differences in tumor growth were assessed by comparing the slopes of tumor growth across groups based on a linear longitudinal two-stage analysis where slopes were estimated in stage 1 and compared across mice in stage 2. Linear regression coefficients were evaluated using Wald tests. Statistical analyses were performed using R statistical software and utilized the survival library.

The next data set concerns tumor cell. Description: Combination with paclitaxel in vitro, tumor cell death. The conditions noted are these: antagonist added to paclitaxel in vitro. Format: cell-based.
The conditions of data set [2]: healthy individuals, patients with asthma or cardiovascular diseases, cited from earlier work.
Data set [3] concerns T24 cells. In words: Sensitivity of T24 cells to cisplatin with TP receptor antagonists. Format: cell-based, human. Here is the method: SV-HUC and T24 cells were seeded at 5,000 cells per well in 96-well plates, and then treated with either compound or vehicle (ethanol) alone. The number of viable cells were quantified at the indicated time points, using the MTT (3-(4,5-Dimethyl-2-thiazolyl)-2,5-diphenyl-2H-tetrazolium bromide thiazole blue) assay, performed in quadruplicate, according to the manufacturer's instructions (Sigma-Aldrich). Optical density (OD) was measured at wavelength of 550 nm with reference wavelength of 690 nm.
Cell viability was analyzed under the microscope at 200× using trypan blue staining. Flow cytometric measurements of apoptosis were as follows. After 12 hours treatment with solvent control or TP receptor antagonists, cells were washed twice in ice cold phosphate buffered saline (PBS) and resuspended in binding buffer (10 mM HEPES, 140 mM NaCl, 2.5 mM CaCl2), at 1×10^6 cells in a 400 μl volume of binding buffer, in duplicate. Cells were incubated with 10 μl of human annexin V-phycoerythrin (PE) (BD Bioscience Inc.) for 15 min at room temperature in dark. […] The TUNEL assay was performed following the protocol of the TUNEL kit's manufacturer (Roche Diagnostics).

A further data set deals with JNK1/2 and FOXO3a. In words: Effect of U46619 on JNK1/2 and FOXO3a. The conditions noted are these: agonist stimulation. Format: cell-based. The source says: (§1) FIGS. 14A-F. TP-β regulation of pleiotrophin (PTN). […] (FIG. 14D) PTN mRNA reduction after PTXA2 treatment. The PTN mRNA levels are restored following the co-treatment with U46619. (FIG. 14E) shRNAi mediated knockdown of β-arrestin-2 reduced agonist dependent increase in PTN mRNA in HT-1376 cells (PTEN:wt), and UM-UC-3 cells (PTEN:minus). (FIG. 14F) Effect of U46619 on JNK1/2 and FOXO3a phosphorylation.

For the next data set, the system named is PTN mRNA. Description: PTN mRNA expression after receptor antagonist / agonist. Format: cell-based. To be noted: co-incubation of agonist with PTXA2.
From the text: as §1

The test system of data set [4] is T24 cells. Description: Western blot of FAK and ERK phosphorylation in T24 cells. Format: cell-based, human. The conditions noted are these: serum starved 12 hrs, treated 1 hr. As to the method:
FIG. 6. Effect of TP receptor agonist (U46619) and antagonist (PTXA2) treatment on phosphorylation of FAK and ERK. T24 cells were serum starved for 12 hrs then treated with PTXA2 or U46619 for 1 hr. Tyrosine phosphorylation of FAK was assessed with western blot analysis on […] of cell lysate using anti-FAK pY397 (BD Bioscience) and pERK using a pERK specific antibody.
(§2) Tumor and normal bladder tissues were snap-frozen in liquid nitrogen within 30 minutes after the surgery. Frozen sections were stained with hematoxylin and eosin and samples identified that had at least 70% tumor cells were selected for further studies. Pulverized tissue powders were lysed in RIPA buffer (150 mM NaCl, 50 mM Tris-HCl [pH 8.0], 1% Triton X100, 0.1% SDS, 1% deoxycholate and protease inhibitor cocktail [Complete Protease Inhibitors, Roche]) for 15 minutes on ice. Equal amounts of total protein (40 μg) were resolved by 12% SDS-PAGE and subjected to Western blot analyses using ECL system (Amersham-Pharmacia). Screening Western blots for TP-α and TP-β isoform expression in bladder cancer cell lines was done using rabbit polyclonal antibodies against TP-α or TP-β (described above). SVHUC cells stably transfected with TP-α or TP-β plasmids were screened for PCNA, tubulin, GAPDH, FAK, pFAK, ERK, pERK protein (Santa Cruz) and ICAM-1 (Abcam).

The target of another data set is T1, TP-β (Homo sapiens, UniProt P21731).
T1 construct: expressed in transfected cells
T1 sequence (P21731 1-407 isoform P21731-2): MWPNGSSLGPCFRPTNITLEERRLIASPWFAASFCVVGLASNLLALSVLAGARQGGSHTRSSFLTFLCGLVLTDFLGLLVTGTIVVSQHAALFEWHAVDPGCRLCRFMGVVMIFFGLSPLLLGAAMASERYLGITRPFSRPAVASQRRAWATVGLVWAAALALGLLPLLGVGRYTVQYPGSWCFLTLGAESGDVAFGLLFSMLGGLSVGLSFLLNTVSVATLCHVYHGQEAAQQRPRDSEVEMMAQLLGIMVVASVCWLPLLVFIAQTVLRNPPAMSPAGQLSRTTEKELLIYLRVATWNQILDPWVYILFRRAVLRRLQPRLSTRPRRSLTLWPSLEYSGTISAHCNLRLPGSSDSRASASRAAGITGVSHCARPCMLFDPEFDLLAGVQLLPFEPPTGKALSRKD
Description: Phosphorylation of ERK and FAK in SV-HUC cells transfected with TP-β. Format: cell-based. To be noted: SV-HUC cells transfected with TP-β. As to the method:
(§3) FIG. 7. Effects of U46619 and PTXA2 on phosphorylation of ERK and FAK. SV-HUC cells transfected with pcDNA3, TP-α or TP-β data are representative of 3 experiments.
as §2
SV-HUC cells were grown to 80% confluence and transfected with 2 μg of pcDNA3 vector encoding either the TP-α or TP-β receptor isoforms. Transfection was performed in 6-well plates using the Fugene reagent (Roche) according to the manufacturer's instructions. After 72 hours post-transfection, cells were selected with 500 μg/ml G418 (Roche) and stable pools isolated after 14 days.

In another data set the target is T2, TP-α (Homo sapiens, UniProt P21731).
T2 construct: expressed in transfected cells
T2 sequence (P21731 1-343): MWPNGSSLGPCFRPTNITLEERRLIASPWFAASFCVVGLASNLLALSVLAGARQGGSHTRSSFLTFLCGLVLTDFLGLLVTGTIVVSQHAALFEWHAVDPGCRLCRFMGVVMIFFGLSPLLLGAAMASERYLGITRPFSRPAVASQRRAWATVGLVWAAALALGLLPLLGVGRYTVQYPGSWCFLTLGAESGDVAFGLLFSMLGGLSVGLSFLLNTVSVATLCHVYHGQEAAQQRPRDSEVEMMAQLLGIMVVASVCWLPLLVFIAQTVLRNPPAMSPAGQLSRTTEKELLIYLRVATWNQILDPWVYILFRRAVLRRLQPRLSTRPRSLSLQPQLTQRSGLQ
In words: Phosphorylation of ERK and FAK in SV-HUC cells transfected with TP-α or pcDNA3. Format: cell-based. Here is the method:
as §3, §2
SV-HUC cells were grown to 80% confluence and transfected with 2 μg of pcDNA3 vector encoding either the TP-α or TP-β receptor isoforms. Transfection was performed in 6-well plates using the Fugene reagent (Roche) according to the manufacturer's instructions. […]

The target of the next data set is T3, TP-β and PTEN (Homo sapiens, UniProt P21731).
T3 construct: endogenous in cells; host or cells: HT-1376 bladder cancer cells
T3 sequence (P21731 1-407 isoform P21731-2): as the sequence (P21731 1-407 isoform P21731-2) above
T3 sequence (P60484 2-403 partner limits assumed): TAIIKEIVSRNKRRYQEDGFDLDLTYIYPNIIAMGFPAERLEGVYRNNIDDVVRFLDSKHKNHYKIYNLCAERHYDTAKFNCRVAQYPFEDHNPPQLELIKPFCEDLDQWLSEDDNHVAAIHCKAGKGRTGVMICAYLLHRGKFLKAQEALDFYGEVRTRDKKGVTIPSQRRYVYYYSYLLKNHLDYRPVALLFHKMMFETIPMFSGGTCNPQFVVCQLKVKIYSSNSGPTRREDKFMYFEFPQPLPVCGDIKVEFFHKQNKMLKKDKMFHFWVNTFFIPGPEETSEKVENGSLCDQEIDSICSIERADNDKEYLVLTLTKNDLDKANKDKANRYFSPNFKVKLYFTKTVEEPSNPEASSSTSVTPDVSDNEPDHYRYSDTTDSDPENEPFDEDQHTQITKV
Description: TP-β / PTEN co-immunoprecipitation and immunofluorescence. Format: cell-based. As to the method: FIGS. 13A-D. TP-β receptor localization and interaction with PTEN. (FIG. 13A) Co-immunoprecipitation followed by Western blot analysis. Immunoprecipitation with TP-α or TP-β specific antibodies was performed using extracts prepared from HT-1376 cells. […] Extracts prepared from solvent or agonist treated cells were immunoprecipitated with TP-β specific antibody. […] After TP-β stimulation with the U46619, PTEN translocated from the cytoplasm to the nuclear membrane. (FIG. 13D) PTEN lipid phosphatase activity was diminished in SV-HUC cells transfected with TP-β compared to those transfected with TP-α.

Setting [5] is: vehicle treated mice compared to GR32191 treated mice.

“Also recorded” adds a separate entry of the source. Like-named read-outs stand apart in the source and are kept apart here.

We go through three compounds from patent US8551489B2, “Methods for the treatment of cancers” (MUSC Foundation for Research Development, priority 2008, dated 2013).

As for `O=C(O)CC/C=C\CC[C@@H]1[C@@H](N2CCCCC2)[C@@H](O)C[C@@H]1OCc1ccc(-c2ccccc2)cc1` [GR32191], the “inhibition of cell migration and invasion” value in the data set with bladder cancer cells (complementary studies, data not shown) is reported as 65%. Besides, in data set [1] (20 mg/kg daily by gavage), the “time of tumor free mice” value is reported as “significantly (P<0.04) extended”. In data set [1] (20 mg/kg daily by gavage, monitored over time), the tumor growth entry is listed as “significantly inhibited”. Also, in [1] (20 mg/kg daily by gavage, started 24 hrs after cell injection), the “detection of palpable tumors / time of tumor onset” value is given as “delayed”. Also, the survival result in data set [1] (GR32191 alone) and in data set [1] (GR32191 in combination with cisplatin) was “prolonged survival” each time. The “apoptosis, TUNEL staining” value in data set [1] (GR32191 treated compared to vehicle treated mice, p<0.05) is given as “significant increase in apoptosis”. In addition, the “microvessel density (MVD), CD31 staining” value in data set [1] (vehicle control compared to mice treated with GR32191) was “significantly higher (p<0.05) microvessel density”. Moreover, the “cell proliferation, PCNA staining” value in data set [1] (setting [5]) is given as “significantly increased (p<0.05) cell proliferation”. Also, the “percentage of undifferentiated tumors, H&E staining” value in data set [1] (setting [5]) was “significantly higher percentage (p<0.01) of undifferentiated tumors”. The tumor cell death entry in the data set on tumor cell is listed as “synergistically increased tumor cell death”. Moreover, the “safety in clinical studies” value in data set [2] is “shown to be safe”; in data set [2] (listed as GR), “excellent safety profile”. Also, the sensitivity to cisplatin entry in the data set with T24 cells [3] is recorded as “enhanced sensitivity to cisplatin”.

For the compound `O=C(O)CCC/C=C\C[C@@H]1[C@H](CNNC(=O)Nc2ccccc2)[C@H]2CC[C@@H]1O2` [SQ29548], the tumor cell death result in the data set with tumor cell was “synergistically increased tumor cell death”. Moreover, the sensitivity to cisplatin result with T24 cells [3] is listed as “enhanced sensitivity to cisplatin”.

For the compound `CCCCC[C@H](O)/C=C/[C@@H]1[C@@H](C/C=C\CCCC(=O)O)[C@H]2CO[C@@H]1C2` [U46619], in the data set on bladder cancer cells (T-24 cells, transwell migration assay, 1 μM U46619 for 12 hours), the cell migration entry was “increase in migration”. Moreover, the JNK1/2 activation entry in the data set with JNK1/2 and FOXO3a was “induced JNK1/2 activation”. Besides, in the data set on JNK1/2 and FOXO3a, the “expression of the transcription factor FOXO3a” value was “reduced the expression”. In addition, in the data set on PTN mRNA, the PTN expression entry is recorded as “restored”. Moreover, the “phospho-ERK and phospho-FAK levels” value in the data set with T24 cells [4] was “significantly increased; also recorded: increased phosphorylation”. For the same compound, the “phosphorylation of FAK and ERK on agonist stimulation” value on TP-β was “stimulated pERK1/2 and pFAK; also recorded: stimulated the phosphorylation of FAK and ERK”; at TP-α, “failed to stimulate”. The “localization of TP-β and PTEN proteins” value on TP-β and PTEN (immunofluorescence, in the presence of agonist) is reported as “translocated to the nuclear membrane”. Moreover, the “association between TP-β and PTEN” value at TP-β and PTEN (immunoprecipitation with TP-β specific antibody, agonist versus solvent treated cells) was “Increased association between TP-β and PTEN”.
